By EC50 is commonly meant the concentration at which the effect is half-maximal. A low value points to higher potency in that assay.

The record followed here is ChEMBL document CHEMBL3751672, “PPAR agonists based on stilbene and its bioisosteres: biological evaluation and docking studies” (Medchemcomm, 2015).

What all share (assay type): cell-based
In assay [1] the target is T1, Peroxisome proliferator-activated receptor alpha (Homo sapiens) (UniProt Q07869).
T1 sequence (whole entry): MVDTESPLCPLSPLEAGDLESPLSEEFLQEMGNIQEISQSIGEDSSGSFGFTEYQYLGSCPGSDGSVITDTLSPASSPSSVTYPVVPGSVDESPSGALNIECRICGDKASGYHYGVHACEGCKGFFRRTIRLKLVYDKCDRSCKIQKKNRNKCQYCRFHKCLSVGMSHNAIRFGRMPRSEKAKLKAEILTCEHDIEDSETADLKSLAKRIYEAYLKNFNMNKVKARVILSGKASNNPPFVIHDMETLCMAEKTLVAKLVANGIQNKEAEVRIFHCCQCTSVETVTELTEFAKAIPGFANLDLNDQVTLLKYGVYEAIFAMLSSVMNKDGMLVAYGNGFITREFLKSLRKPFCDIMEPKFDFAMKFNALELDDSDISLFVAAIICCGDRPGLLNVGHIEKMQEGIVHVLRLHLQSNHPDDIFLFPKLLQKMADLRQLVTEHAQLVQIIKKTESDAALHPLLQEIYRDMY
The assay is described as follows: Transactivation of human PPARalpha expressed in HEK293 cells at 150 uM incubated for 18 hrs by dual luciferase reporter gene assay relative to gemfibrozil. For orientation: In a reporter assay the amount or activity of a reporter protein is the signal.

The target of assay [2] is T2, Peroxisome proliferator-activated receptor alpha (Homo sapiens, UniProt Q07869).
T2 sequence (Q07869 whole entry): T1 sequence (whole entry)
Description: Transactivation of human PPARalpha expressed in HEK293 cells incubated for 18 hrs by dual luciferase reporter gene assay.

In assay [3] the target is T1, Peroxisome proliferator-activated receptor alpha (Homo sapiens). The assay is described as follows: Agonist activity at PPARalpha in human HepG2 cells assessed as increase in CPT1A gene expression at EC50 incubated for 24 hrs by real time quantitative PCR method.
Assay [4] has the same target. The assay is described as follows: Agonist activity at PPARalpha in human HepG2 cells assessed as increase in CPT1A gene expression incubated for 24 hrs by real time quantitative PCR method.
For assay [5] the target is unchanged. The assay is described as follows: Agonist activity at PPARalpha in human HepG2 cells assessed as increase in CPT1A gene expression at 100 uM incubated for 24 hrs by real time quantitative PCR method relative to gemfibrozil.
Assay [6] shares this target. Description: Agonist activity at PPARalpha in human HepG2 cells assessed as increase in CPT1A gene expression at 10 uM incubated for 24 hrs by real time quantitative PCR method relative to gemfibrozil.
Assay [7] shares this target. The assay is described as follows: Agonist activity at PPARalpha in human HepG2 cells assessed as increase in CPT1A gene expression at 10 uM incubated for 24 hrs by real time quantitative PCR method.

The structures appear in SMILES notation. The source made the active and inactive calls. The rule behind the calls is not given here.

Consider `Cc1ccc(/C=C/c2ccc(OCCCC(C)(C)C(=O)O)cc2)cc1`, for which, in assay [1], the Efficacy stood at 118%. The molecule further showed an EC50 in assay [2] of 3.3 µM.
Regarding `COc1ccc(/C=C/c2ccc(OCCCC(C)(C)C(=O)O)cc2)cc1`, the Efficacy in assay [1] worked out at 164%. Further, the response in assay [2] was half-maximal at 28.4 µM (EC50).
On to `Cc1ccc(C)c(OCCCC(C)(C)C(=O)O)c1`, for which the outcome in assay [3] was Active.
Regarding `CC(C)(CCCOc1ccc(/C=C/c2ccccc2)cc1Cl)C(=O)O`, the Efficacy in assay [1] was 46%.
Still for that read-out and setting: the same measure for `CC(C)(CCCOc1ccc(/C=C/c2ccc(N)cc2)cc1)C(=O)O`: 29%.
Take `CC(C)(CCCOc1ccc(/C=C/c2ccc3ccccc3c2)cc1)C(=O)O`: the Efficacy in assay [1] is 123%. In assay [2], this molecule came in with a concentration giving a half-maximal response (EC50) of 90 µM.
In the case of `CC(C)(CCCOc1ccc(/C=C/c2ccccc2)cc1)C(=O)O`, the fold change (FC) was found to be 2 in assay [1], 6 in assay [5] and 2 in assay [6]. Moreover, the Activity entry in assay [4] is “Dose-dependent effect”.
Take `CC(C)(CCCOc1ccc(/C=C/c2ccncc2)cc1)C(=O)O`: the Efficacy in assay [1] stood at 115%. Also, in assay [2], the EC50 turned out to be 103 µM.
With `CC(C)(CCCOc1ccc(/C=C/c2ccc(Cl)cc2)cc1)C(=O)O`, in assay [1], the Efficacy worked out at 227%. Moreover, the fold change (FC) in assay [1] and in assay [5] was 2 in each case. For the same molecule, the Activity entry in assay [4] was “Dose-dependent effect”. This molecule also displayed an EC50 in assay [2] of 0.8 µM. Moreover, the result in assay [7] was Active.
For `CC(C)(CCCOc1ccc(/C=C/c2ccsc2)cc1)C(=O)O`, the Efficacy in assay [1] is 152%. The half-maximal effective concentration (EC50) in assay [2] came to 3.8 µM.
`CC(C)c1ccc(/C=C/c2ccc(OCCCC(C)(C)C(=O)O)cc2)cc1`: the Efficacy in assay [1] worked out at 17%.
On the same count and under the same terms, the same measure for `CC(C)(CCCOc1ccc(/C=C/c2ccc(Cl)cc2Cl)cc1Cl)C(=O)O`: 20%.
On the same count and under the same terms, the same measure for `CC(C)(CCCOc1ccc(/C=C/c2ccc(C#N)cc2)cc1)C(=O)O`: 23%.
`CC(C)(CCCOc1ccc(/C=C/c2ccc(C(F)(F)F)cc2)cc1)C(=O)O` returned an Efficacy in assay [1] of 205%. Moreover, the fold change (FC) in assay [1] and in assay [5] was 2 throughout. Further, the Activity entry in assay [4] is “Dose-dependent effect”. Moreover, in assay [2], the 50% effective concentration (EC50) worked out at 0.76 µM. For the same molecule, the result in assay [7] was Active.
As for `CC(C)(CCCOc1ccc(/C=C/c2ccc(Cl)cc2Cl)cc1)C(=O)O`, in assay [1], the Efficacy was determined as 32%.
